pIC50: −log10 of the molar value. Where two headings read alike, the source gives them in different places.
Experiments:
[1] = molecular target: T1, Human recombinant PDE3A (hPDE3A) (Homo sapiens, UniProt Q14432); assay: In vitro assay PDE3A (SPA, 3H-cAMP hydrolysis); assay type: biochemical; settings: for IC50: hPDE3B pIC50, read-out: pIC50 (converted); for Emax: read-out: hPDE3B Emax, read-out: Emax;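 for all read-outs here: the method names PDE3A and the table heading PDE3B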
T1 construct: purchased Scottish Biomedical; host or cells: Sf9 insect cells
Outline: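 Human PDE3A, cloned from brain, as partially purified Sf9 lysate. Substrate 0.4 μM cAMP plus [3H]-cAMP (2.4 μCi/ml final) in 50 mM Tris pH 7.8, 8.3 mM MgCl2, 1.7 mM EGTA, 60 min at room temperature, 1% DMSO final. Hydrolysis read by SPA scintillation counting against no-enzyme blanks and DMSO controls.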

[2] = molecular target: T2, Human recombinant PDE10A (hPDE10A) (Homo sapiens, UniProt Q9Y233); assay: In vitro assay PDE10A, human clone (SPA, 3H-cAMP hydrolysis); assay type: biochemical
T2 construct: His tag (inferred from metal chelate purification); made in house; host or cells: Sf9 insect cells (baculovirus)
Outline: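 Human recombinant PDE10A was expressed in Sf9 cells via baculovirus and incubated with compound in 50 mM Tris pH 7.8, 8.3 mM MgCl2, 1.7 mM EGTA. Substrate was 60 nM cAMP plus 0.008 μCi 3H-cAMP for 60 min at room temperature, read by SPA scintillation counting. Controls used 1% DMSO, and blanks omitted enzyme.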

[3] = molecular target: T3, Human recombinant PDE2A (hPDE2A) (Homo sapiens, UniProt O00408); assay: In vitro assay PDE2A (SPA, 3H-cGMP hydrolysis); assay type: biochemical; settings: for Emax: read-out: hPDE2A Emax; for IC50: read-out: hPDE2A pIC50 (converted)
T3 construct: His tag (inferred from metal chelate purification); made in house; host or cells: Sf9 insect cells (baculovirus)

[4] = human clone by default (no (r) mark), read-out: hPDE10A2 or rPDE10A2 Emax
[5] = human clone by default (no (r) mark), read-out: hPDE10A2 or rPDE10A2 pIC50 (converted)
[6] = human clone (h), default, read-out: hPDE10A2 Emax
[7] = human clone (h), default, read-out: hPDE10A2 pIC50 (converted)
[8] = human recombinant PDE2A, 10 μM cGMP substrate
[9] = hPDE2A pIC50, human recombinant PDE2A, 10 μM cGMP substrate

T3 sequence (O00408 whole entry): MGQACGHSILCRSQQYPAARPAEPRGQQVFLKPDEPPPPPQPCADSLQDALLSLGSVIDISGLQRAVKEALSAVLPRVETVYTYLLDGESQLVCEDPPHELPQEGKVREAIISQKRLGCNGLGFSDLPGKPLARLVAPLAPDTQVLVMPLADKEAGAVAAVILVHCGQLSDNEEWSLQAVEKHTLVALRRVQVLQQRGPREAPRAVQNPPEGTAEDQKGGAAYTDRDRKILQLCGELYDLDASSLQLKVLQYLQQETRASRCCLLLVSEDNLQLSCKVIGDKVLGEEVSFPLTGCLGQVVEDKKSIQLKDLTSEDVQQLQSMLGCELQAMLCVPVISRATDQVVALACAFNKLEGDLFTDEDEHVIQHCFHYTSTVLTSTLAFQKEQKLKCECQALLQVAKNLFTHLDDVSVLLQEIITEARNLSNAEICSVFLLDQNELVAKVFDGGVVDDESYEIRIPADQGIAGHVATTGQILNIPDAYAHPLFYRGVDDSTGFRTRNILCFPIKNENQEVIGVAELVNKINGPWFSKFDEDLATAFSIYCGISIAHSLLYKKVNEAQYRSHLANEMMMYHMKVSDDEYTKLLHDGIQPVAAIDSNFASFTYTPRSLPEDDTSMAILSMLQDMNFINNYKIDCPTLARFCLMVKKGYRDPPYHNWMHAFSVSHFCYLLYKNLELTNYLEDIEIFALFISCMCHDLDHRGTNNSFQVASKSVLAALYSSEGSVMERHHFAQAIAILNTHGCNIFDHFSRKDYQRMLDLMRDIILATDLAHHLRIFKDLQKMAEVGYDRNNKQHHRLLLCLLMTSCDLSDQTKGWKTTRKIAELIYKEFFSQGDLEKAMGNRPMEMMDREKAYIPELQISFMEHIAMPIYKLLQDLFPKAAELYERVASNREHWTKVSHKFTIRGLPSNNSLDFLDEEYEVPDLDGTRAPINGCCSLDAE
T2 sequence (Q9Y233 267-1055): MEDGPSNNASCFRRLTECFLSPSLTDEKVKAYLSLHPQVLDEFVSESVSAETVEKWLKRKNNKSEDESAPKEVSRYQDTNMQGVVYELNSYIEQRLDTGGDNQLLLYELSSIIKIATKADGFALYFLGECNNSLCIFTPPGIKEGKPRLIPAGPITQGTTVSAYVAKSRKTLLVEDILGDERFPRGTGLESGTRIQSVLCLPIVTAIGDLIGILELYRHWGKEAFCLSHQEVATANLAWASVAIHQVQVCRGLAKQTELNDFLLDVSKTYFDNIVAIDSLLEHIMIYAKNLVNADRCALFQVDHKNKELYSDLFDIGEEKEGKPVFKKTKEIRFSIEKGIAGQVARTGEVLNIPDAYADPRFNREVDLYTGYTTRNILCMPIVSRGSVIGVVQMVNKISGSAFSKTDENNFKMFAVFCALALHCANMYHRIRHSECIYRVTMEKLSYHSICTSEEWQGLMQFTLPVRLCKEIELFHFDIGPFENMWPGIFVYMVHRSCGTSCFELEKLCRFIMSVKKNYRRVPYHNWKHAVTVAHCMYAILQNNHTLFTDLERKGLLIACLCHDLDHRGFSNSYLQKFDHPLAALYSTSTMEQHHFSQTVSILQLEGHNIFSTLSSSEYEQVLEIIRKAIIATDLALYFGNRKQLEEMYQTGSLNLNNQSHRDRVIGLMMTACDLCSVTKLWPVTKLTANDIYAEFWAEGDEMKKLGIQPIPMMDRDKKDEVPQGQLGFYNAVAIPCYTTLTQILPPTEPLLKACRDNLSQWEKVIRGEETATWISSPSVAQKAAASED
T1 sequence (Q14432 whole entry): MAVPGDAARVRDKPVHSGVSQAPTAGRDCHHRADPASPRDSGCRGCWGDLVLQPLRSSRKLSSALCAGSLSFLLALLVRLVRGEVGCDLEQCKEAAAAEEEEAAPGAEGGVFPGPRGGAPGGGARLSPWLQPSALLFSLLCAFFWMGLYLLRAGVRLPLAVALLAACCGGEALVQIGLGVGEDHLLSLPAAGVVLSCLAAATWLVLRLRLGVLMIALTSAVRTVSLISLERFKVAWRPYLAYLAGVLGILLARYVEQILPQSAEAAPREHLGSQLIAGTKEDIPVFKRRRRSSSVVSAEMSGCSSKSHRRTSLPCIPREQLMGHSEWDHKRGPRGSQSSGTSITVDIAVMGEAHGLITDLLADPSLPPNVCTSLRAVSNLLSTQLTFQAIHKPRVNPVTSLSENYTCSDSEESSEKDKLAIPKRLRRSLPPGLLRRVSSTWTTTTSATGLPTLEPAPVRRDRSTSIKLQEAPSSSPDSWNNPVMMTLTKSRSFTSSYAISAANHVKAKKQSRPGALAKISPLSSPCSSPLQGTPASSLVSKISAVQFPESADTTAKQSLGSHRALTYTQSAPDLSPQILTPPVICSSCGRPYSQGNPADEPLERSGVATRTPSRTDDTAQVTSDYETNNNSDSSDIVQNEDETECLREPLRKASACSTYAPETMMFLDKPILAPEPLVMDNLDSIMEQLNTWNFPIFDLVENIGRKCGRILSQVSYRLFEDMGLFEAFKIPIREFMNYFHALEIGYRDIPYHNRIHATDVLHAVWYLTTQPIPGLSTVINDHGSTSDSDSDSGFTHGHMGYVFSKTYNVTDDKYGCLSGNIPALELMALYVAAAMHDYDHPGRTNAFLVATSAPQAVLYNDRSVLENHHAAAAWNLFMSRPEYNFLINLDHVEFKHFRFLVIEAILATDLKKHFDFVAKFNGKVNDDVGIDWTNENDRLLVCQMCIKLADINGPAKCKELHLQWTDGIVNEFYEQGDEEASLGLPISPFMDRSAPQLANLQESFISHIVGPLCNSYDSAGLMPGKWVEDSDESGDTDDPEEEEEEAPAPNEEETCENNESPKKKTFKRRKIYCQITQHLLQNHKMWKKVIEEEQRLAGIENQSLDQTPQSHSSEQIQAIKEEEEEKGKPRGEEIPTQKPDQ

COc1ccc(C(=O)N2[C@H]3CC[C@H](c4cc(C(F)F)nc5ncnn45)[C@@H]2CC3)cc1Cl [Compound 376]
IC50 [1]: 3390 nM
Emax [1]: 79%
Emax [2, 4]: 97%
IC50 [2, 5]: 309 nM
melting point: 175.71 °C
Emax [3]: 101%
IC50 [3]: 4.27 nM

Cc1cc([C@@H]2CN(C(=O)c3cc(Cl)ncc3Cl)CC[C@H]2C)n2ncnc2n1 [Compound 271]
IC50 [1]: 7410 nM
Emax [1]: 61%
Emax [2, 6]: 95%
IC50 [2, 7]: 162 nM
Emax [2, 4]: 95%
IC50 [2, 5]: 162 nM
melting point: 247.4 °C
Emax [3]: 99%
IC50 [3]: 2.95 nM

O=C(c1cn2ccsc2n1)N1[C@H]2CC[C@H](c3cc(C(F)F)nc4ncnn34)[C@@H]1CC2 [Compound 360]
IC50 [1]: 8510 nM
Emax [1]: 50%
Emax [2, 4]: 55%
IC50 [2, 5]: 6920 nM
melting point: 264.8 °C
Emax [3]: 97%
IC50 [3]: 40.7 nM

C[C@@H]1CCN(C(=O)c2cnc3c(Cl)cccc3c2)C[C@H]1c1cc(C(F)F)nc2ncnn12 [Compound 329]
IC50 [1]: 204 nM
Emax [1]: 95%
Emax [2, 4]: 100%
IC50 [2, 5]: 21.4 nM
melting point: 227.79 °C
Emax [3]: 100%
IC50 [3]: 0.55 nM

CC(C)n1ccc2cc(C(=O)N3[C@H]4CC[C@H](c5cc(C(F)F)nc6ncnn56)[C@@H]3CC4)ccc21 [Compound 355]
IC50 [1]: 724 nM
Emax [1]: 98%
Emax [2, 4]: 98%
IC50 [2, 5]: 234 nM
melting point: 146.08 °C
Emax [3]: 99%
IC50 [3]: 0.933 nM

Cc1ccc(C(=O)N2CCC[C@](C)(c3cc(C(F)F)nc4ncnn34)C2)c(C)n1 (single isomer, unassigned) [Compound 210]
IC50 [1]: > 10000 nM
Emax [1]: 5%
Emax [2, 6]: 16%
IC50 [2, 7]: > 10000 nM
melting point: 195.81 °C
IC50 [3, 8]: 617 nM
Emax ([3]; human recombinant PDE2A): 56%
Emax [3]: 56%
IC50 [3]: 617 nM

Cc1cc(C(=O)N2CCC[C@](C)(c3cc(C(F)F)nc4ncnn34)C2)cc(C)n1 (single isomer, unassigned) [Compound 211]
IC50 [1]: > 10000 nM
Emax [1]: 13%
Emax [2, 6]: 10%
IC50 [2, 7]: > 10000 nM
melting point: 117.5 °C
IC50 [3, 8]: > 10000 nM
Emax ([3]; human recombinant PDE2A): 3%
Emax [3]: 3%
IC50 [3]: > 10000 nM

Cc1cc(C(=O)N2CC[C@@H](C)[C@H](c3cc(C)nc4ncnn34)C2)cc(C2CC2)n1 [Compound 23]
IC50 [1]: 1050 nM
Emax [1]: 90%
Emax [2, 6]: 100%
IC50 [2, 7]: 7.08 nM
melting point: 169.13 °C
pIC50 ([3]; hPDE2A pIC50): 9.33
pIC50 [3, 9]: 9.33
Emax [3]: 101%

C[C@]1(c2cc(C(F)F)nc3ncnn23)CCCN(C(=O)c2ccc3occc3c2)C1 (single isomer, unassigned) [Compound 209]
IC50 [1]: > 10000 nM
Emax [1]: 25%
Emax [2, 6]: 7%
IC50 [2, 7]: > 10000 nM
melting point: 145.19 °C
IC50 [3, 8]: 724 nM
Emax ([3]; human recombinant PDE2A): 57%
Emax [3]: 57%
IC50 [3]: 724 nM

C[C@@H]1CCN(C(=O)c2ccc(F)c(C(F)(F)F)c2)C[C@H]1c1cc(C(F)F)nc2ncnn12 [Compound 194]
IC50 [1]: 4570 nM
Emax [1]: 57%
Emax [2, 6]: 97%
IC50 [2, 7]: 263 nM
melting point: 167.52 °C
IC50 [3, 8]: 18.6 nM
Emax ([3]; human recombinant PDE2A): 99%
Emax [3]: 99%
IC50 [3]: 18.6 nM

C[C@@H]1CCN(C(=O)c2ccc3c(ccn3C)c2)C[C@H]1c1cc(C(F)F)nc2ncnn12 [Compound 327]
IC50 [1]: 77.6 nM
Emax [1]: 99%
Emax [2, 4]: 100%
IC50 [2, 5]: 20.4 nM
melting point: 194.86 °C
Emax [3]: 101%
IC50 [3]: 0.417 nM

C[C@@H]1CCN(C(=O)c2ccc(Cl)c(Cl)c2)C[C@H]1c1cc(C(F)F)nc2ncnn12 [Compound 111]
IC50 [1]: 1050 nM
Emax [1]: 92%
Emax [2, 6]: 99%
IC50 [2, 7]: 38 nM
melting point: 188.75 °C
IC50 [3, 8]: 0.977 nM
Emax ([3]; human recombinant PDE2A): 100%
Emax [3]: 100%
IC50 [3]: 0.977 nM

Cc1cc(C)cc(C(=O)N2CC[C@H](C)[C@@H](c3cc(C(F)F)nc4ncnn34)C2)c1 [Compound 214]
IC50 [1]: > 10000 nM
Emax [1]: 9%
Emax [2, 6]: 30%
IC50 [2, 7]: > 10000 nM
Emax [2, 4]: 30%
IC50 [2, 5]: > 10000 nM
melting point: 203.97 °C
pIC50 ([3]; hPDE2A pIC50): 5.20
pIC50 [3, 9]: 5.20
Emax [3]: 9%

C[C@@H]1CCN(C(=O)c2cnc3ccccc3c2)C[C@H]1c1cc(C(F)F)nc2ncnn12 [Compound 324]
IC50 [1]: 263 nM
Emax [1]: 97%
Emax [2, 4]: 100%
IC50 [2, 5]: 66.1 nM
melting point: 204.06 °C
Emax [3]: 100%
IC50 [3]: 0.851 nM

Cc1cc(C(=O)N2[C@H]3CC[C@H](c4cc(C(F)F)nc5ncnn45)[C@@H]2CC3)cc(C)n1 (racemic) [Compound 31]
hPDE3B Emax [1]: 8
hPDE10A2 Emax ([2]; human clone (h), default): 84
IC50 [2, 7]: 1120 nM
melting point: 190.16 °C
hPDE2A Emax [3]: 100
hPDE2A Emax ([3]; human recombinant PDE2A): 100
IC50 [3, 8]: 2.51 nM
IC50 [3]: 2.51 nM

Cc1cc(C)nc(C(=O)N2CC[C@@H](C)[C@H](c3cc(C(F)F)nc4ncnn34)C2)c1 [Compound 137]
IC50 [1]: > 10000 nM
Emax [1]: 35%
Emax [2, 6]: 84%
IC50 [2, 7]: 1350 nM
melting point: 229.91 °C
IC50 [3, 8]: 28.2 nM
Emax ([3]; human recombinant PDE2A): 100%
Emax [3]: 100%
IC50 [3]: 28.2 nM

Cc1csc(C(=O)N2CC[C@H](C)[C@@H](c3cc(C(F)F)nc4ncnn34)C2)c1 [Compound 213]
IC50 [1]: > 10000 nM
Emax [1]: 11%
Emax [2, 6]: 23%
IC50 [2, 7]: > 10000 nM
melting point: 169.7 °C
IC50 [3, 8]: 2340 nM
Emax ([3]; human recombinant PDE2A): 28%
Emax [3]: 28%
IC50 [3]: 2340 nM

O=C(c1cc(Cl)cc(Cl)c1)N1[C@H]2CC[C@H](c3cc(C(F)F)nc4ncnn34)[C@@H]1CC2 [Compound 333]
IC50 [1]: 6920 nM
Emax [1]: 63%
Emax [2, 4]: 93%
IC50 [2, 5]: 708 nM
melting point: 291.55 °C
Emax [3]: 99%
IC50 [3]: 8.13 nM

Reference: patent publication US10947242B2, “[1,2,4]triazolo[1,5and#8208;A]pyrimidine compounds as PDE2 inhibitors” (Janssen Pharmaceutica NV, priority 2016, dated 2021)
